Test results reported in a compilation of properties of binary mixtures (doi:10.1016/j.molliq.2017.07.014).

Assay: xn = mol fraction of the nth substance listed
Conditions: 101 kPa

CN1CCCC1=O + CCCC[P+](C)(CCCC)CCCC.COS(=O)(=O)[O-]
x2 = 0
Conditions	speed of sound [m/s]	viscosity [mPa·s]
293.15 K	1570	1.9
298.15 K	1566	1.66
303.15 K	1552	1.49
308.15 K	1527	1.38
313.15 K	1518	1.3
318.15 K	1497	1.21
323.15 K	1491	1.15

CCCC[P+](C)(CCCC)CCCC.COS(=O)(=O)[O-] + CN1CCCC1=O
Conditions	speed of sound [m/s]	viscosity [mPa·s]
293.15 K, x1 = 0.056	1574	9.6
293.15 K, x1 = 0.0914	1580	19.6
293.15 K, x1 = 0.1311	1585	28
293.15 K, x1 = 0.1773	1588	43
293.15 K, x1 = 0.2318	1590	67
293.15 K, x1 = 0.2971	1587	100
293.15 K, x1 = 0.3764	1582	138
293.15 K, x1 = 0.4752	1578	188
293.15 K, x1 = 0.6014	1575	290
293.15 K, x1 = 0.7129	1573	440
293.15 K, x1 = 0.8515	1568	580
293.15 K, x1 = 0.9022	1566	630
293.15 K, x1 = 0.9468	1565	680
293.15 K, x1 = 1	1564	730
298.15 K, x1 = 0.0914	1576	13.2
298.15 K, x1 = 0.1311	1580	18
298.15 K, x1 = 0.1773	1584	23.7
298.15 K, x1 = 0.2318	1585	39
298.15 K, x1 = 0.2971	1581	51
298.15 K, x1 = 0.4752	1572	114
298.15 K, x1 = 0.6014	1567	170
298.15 K, x1 = 0.8515	1553	410
298.15 K, x1 = 0.9022	1551	450
298.15 K, x1 = 0.9468	1549	490
303.15 K, x1 = 0.056	1556	2.01
303.15 K, x1 = 0.1311	1564	7.8
303.15 K, x1 = 0.3764	1561	40
303.15 K, x1 = 0.4752	1557	65
303.15 K, x1 = 0.6014	1552	108
303.15 K, x1 = 0.7129	1548	198
303.15 K, x1 = 0.8515	1538	300
303.15 K, x1 = 1	1530	380
308.15 K, x1 = 0.056	1536	2.01
308.15 K, x1 = 0.0914	1540	2.5
308.15 K, x1 = 0.1311	1544	3.4
308.15 K, x1 = 0.1773	1548	6.4
308.15 K, x1 = 0.2318	1549	8.9
308.15 K, x1 = 0.2971	1546	13.9
308.15 K, x1 = 0.3764	1542	20.5
308.15 K, x1 = 0.4752	1539	31
308.15 K, x1 = 0.6014	1536	67
308.15 K, x1 = 0.7129	1533	131
308.15 K, x1 = 0.8086	1528	192
308.15 K, x1 = 0.8515	1524	221
308.15 K, x1 = 0.9022	1522	245
308.15 K, x1 = 0.9468	1519	270
308.15 K, x1 = 1	1514	290
313.15 K, x1 = 0.0914	1536	2.21
313.15 K, x1 = 0.1311	1539	3.2
313.15 K, x1 = 0.2318	1542	6.8
313.15 K, x1 = 0.2971	1539	12.1
313.15 K, x1 = 0.3764	1535	15.2
313.15 K, x1 = 0.4752	1531	17.7
313.15 K, x1 = 0.6014	1526	45
313.15 K, x1 = 0.7129	1522	95
313.15 K, x1 = 0.8086	1517	144
313.15 K, x1 = 0.8515	1515	166
313.15 K, x1 = 0.9022	1509	186
313.15 K, x1 = 0.9468	1507	201
313.15 K, x1 = 1	1499	217
318.15 K, x1 = 0.056	1511	1.1
318.15 K, x1 = 0.0914	1518	2.5
318.15 K, x1 = 0.1311	1522	4.5
318.15 K, x1 = 0.1773	1523	6.4
318.15 K, x1 = 0.2971	1521	10.2
318.15 K, x1 = 0.3764	1518	12.1
318.15 K, x1 = 0.4752	1515	12.3
318.15 K, x1 = 0.6014	1511	32
318.15 K, x1 = 0.8515	1502	128
318.15 K, x1 = 0.9022	1498	144
318.15 K, x1 = 0.9468	1495	159
318.15 K, x1 = 1	1486	169
323.15 K, x1 = 0.056	1506	1.11
323.15 K, x1 = 0.1311	1517	3.8
323.15 K, x1 = 0.1773	1518	5.7
323.15 K, x1 = 0.2318	1518	10.1
323.15 K, x1 = 0.2971	1515	11.1
323.15 K, x1 = 0.3764	1512	13.1
323.15 K, x1 = 0.4752	1508	13.2
323.15 K, x1 = 0.7129	1499	59
323.15 K, x1 = 0.8086	1495	88
323.15 K, x1 = 0.8515	1491	103
323.15 K, x1 = 0.9022	1488	116
323.15 K, x1 = 0.9468	1484	124
323.15 K, x1 = 1	1472	133
